Test results reported in paper PMC3602187, “From Design to Screening: A New Antimicrobial Peptide Discovery Pipeline” (PLoS ONE, 2013).
Converted amounts (≈) assume the structure as drawn. Where a SMILES comes first, the peptide text is derived from it.

Tests used:
Listeria innocua 33090 [1] = assay: MIC determination / agar spot assay of synthetic peptides; type: cell-based
Method: Synthetic samples of wild-type Pln-423, two variants Pln-S23E and Pln-H28R/H34E from this study (Pln-4 and Pln-7 on Fig. 2), and another high-activity variant Pln-S27D/K36N (discovered during a pilot study, data not shown) were tested on agar plates at varying concentrations.
MICs were determined as previously described, [35]. Synthetic peptides were obtained from Peptide 2.0, Inc. (Chantilly, VA) and dissolved in 0.1% acetic acid/water solution at the final concentration of 2.5 mg/ml. Listeria innocua 33090 was grown in TSB until the turbidity of the culture match that of McFarland standard 0.5 (∼OD600 = 0.11) and diluted to final concentration of 5×10^5 cfu/ml in 20 ml TSB soft agar (1.2%) per plate. Two-fold serial dilutions (starting at 128 µg/ml) for each peptide was carried out in ultra-pure deionized water and 5 µl aliquots of each dilution were spotted on TSB plates. After the plates were incubated for 1 h at room temperature, they were placed at 37°C for overnight incubation. This experiment was performed in triplicate and the MIC was calculated as the lowest peptide concentration that formed a visible growth inhibition zone.

Listeria innocua 33090 [2] = assay: colony overlay assay of peptide-secreting E. coli clones (library screening and re-test); type: cell-based; parameters: key: higher activity group (H); equal activity group (E); lower activity group (L); details: library screening; selected colonies pooled by zone size; peptides identified by 454 sequencing, full-length sequences with minimum 20 reads
Method in brief: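 Pln-423 mutant library expressed periplasmically in leaky E. coli JE5505 (pFLAG-CTS); colonies grown 24 h at 37°C, then overlaid with TSB soft agar containing 1 mM IPTG and L. innocua ATCC 33090 (OD600 = 0.03) and incubated overnight at 30°C. Activity scored by inhibition-zone size versus wild-type Pln-423; hits re-tested after 4 h regrowth.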

CC(C)C[C@H](NC(=O)[C@H](Cc1c[nH]cn1)NC(=O)[C@H](CO)NC(=O)[C@@H](NC(=O)[C@H](CO)NC(=O)[C@H](CS)NC(=O)[C@H](CCC(=O)O)NC(=O)[C@H](Cc1ccccc1)NC(=O)[C@H](C)NC(=O)[C@H](CCC(N)=O)NC(=O)CNC(=O)[C@H](Cc1c[nH]c2ccccc12)NC(=O)[C@H](CC(N)=O)NC(=O)[C@@H](NC(=O)[C@H](CO)NC(=O)[C@H](CS)NC(=O)[C@H](CO)NC(=O)[C@H](Cc1c[nH]cn1)NC(=O)[C@H](CCCCN)NC(=O)CNC(=O)[C@H](CS)NC(=O)[C@@H](NC(=O)[C@@H](NC(=O)CNC(=O)[C@H](CC(N)=O)NC(=O)CNC(=O)[C@H](Cc1ccc(O)cc1)NC(=O)[C@H](Cc1ccc(O)cc1)NC(=O)[C@@H](N)CCCCN)C(C)C)[C@@H](C)O)C(C)C)C(C)C)C(=O)N[C@@H](C)C(=O)N[C@@H](CC(N)=O)C(=O)N[C@@H](Cc1ccccc1)C(=O)NCC(=O)N[C@@H](Cc1c[nH]cn1)C(=O)NCC(=O)N[C@@H](CCCCN)C(=O)N[C@@H](CS)C(=O)O [PLN-S23E] (H-KYYGNGVTCGKHSCSVNWGQAFECSVSHLANFGHGKC-OH; N-terminus and C-terminus assumed)
MIC (Listeria innocua 33090 [1]; synthetic peptide, 5 µl of two-fold serial dilutions spotted on TSB soft agar (1.2%) with 5×10^5 cfu/ml, 1 h room temperature, then 18 h at 37°C, lowest concentration with visible inhibition zone, triplicate): 1 µM (≈ 3.98 µg/mL) | MIC fold higher compared to Pln-WT (Listeria innocua 33090 [1]; synthetic peptides): 13 fold | activity group by size of inhibition zone compared to wild-type Pln-423 (Listeria innocua 33090 [2]): H and L
